Experimental data taken from patent US20260191900A1, “Biofilm Treatment” (Phytoceutical Limited, priority 2022, published 2026).
Values after ≈ are worked out from the molar mass of the structure shown.

How the values were obtained:
[1] = tested on: S. aureus (NCTC12493; MRSA); assay: MIC, broth microdilution; format: cell-based, Staphylococcus aureus; conditions: for MIC: Staphylococcus aureus
Method: (§1) Staphylococcus aureus (NCTC12493; MRSA) and Pseudomonas aeruginosa (NCTC12903) were stored in Pro-Lab Diagnostics Microbank (Fisher, Basingstoke UK) tubes at −80° C. before streaking onto Nutrient Agar (Oxoid, Basingstoke, UK) and incubated at 37° C., aerobically for 18 hours.
(§2) Minimum inhibitory concentrations (MICs) were determined using the broth microdilution method (EUCAST, Clinical Microbiology and Infection (2003), 9(8)). The inoculated liquid culture (grown dynamically overnight at 37° C. in MHB) was adjusted to obtain a ~0.1 OD at 600 nm, equivalent to a 0.5 McFarland Standard. A range of concentrations (diluted in MHB) for each of the compounds were prepared in 96-well plates, followed by the addition of the inoculated media. The plates were then incubated statically for 18 hours at 37° C. Following the incubation period, the lowest concentration of compound presenting an inhibition of bacterial growth was labelled the MIC.

[2] = tested on: P. aeruginosa (NCTC12903); assay: MIC, broth microdilution; format: cell-based, Pseudomonas aeruginosa; conditions: for MIC: Pseudomonas aeruginosa, NCTC12903
Method: as §1, §2

[3] = tested on: S. aureus (NCTC12493) biofilm; assay: Crystal violet biofilm clearance assay; format: cell-based, Staphylococcus aureus; conditions: for amount of biofilm present after treatment (CV stain, OD 600 nm): FIG. 2, 0.000625% PHMB, 10% TPGS, 10% EM, 6.25% EtOH, dosed at day 0 to 7, 24 hours, vs untreated control; for percentage biofilm remaining / amount of biofilm remaining: FIG. 3, 0.1% PHMB, 10% TPGS or both; for percentage biofilm remaining: treated at day 0; for amount of biofilm remaining: treatment at day 1, 2 or 3
Method: as §1
(§3) The two strains of bacteria were produced using different media, with no flocculation occurring. S. aureus was produced using Dulbecco's Modified Eagle Medium and took five to seven days to grow a mature biofilm. P. aeruginosa was produced using M9 minimal media and 1% glucose media and took three days to grow a mature biofilm. Alternatively, Luria-Bertani (LB) broth could be used to grow P. aeruginosa.
(§4) The biofilm growth method and visualisation/analysis techniques were followed from J. Merritt et al. (Curr Protoc Microbiol. (2005); Chapter 1:Unit 1B.1), with modifications. S. aureus (NCTC12493) was grown in DMEM and P. aeruginosa (NCTC12903) was grown in M9 minimal media+1% glucose. Inoculated liquid culture was diluted in 1:100 in their respective medias. Into 96-well plates, 100 μL of the inoculant was added to each well. Following this, the plate was covered with a lid and incubated at 37° C. for 24-hour intervals of up to 7 days, aerobically. The compounds were added and incubated at 37° C. for a further 24 hours. Planktonic bacteria were removed using a pipette, and the biofilms were washed with Milli-Q water. To each well, 125 μL of 0.1% crystal violet (CV) solution was added and left at room temperature for 10-15 minutes. After this, the 0.1% CV solution was removed, and the well was washed until the waste ran clear. The stain was left to air-dry, before 200 μL 30% acetic acid was added to each well for 15 minutes on a plate shaker. To a new 96-well plate, 125 μL stained biofilm solution was transferred and the optical density was read at 600 nm. A comparison was made between the uninhibited biofilm and any biofilm reductions capabilities of the added compounds.
(§5) The candidate compounds were each, therefore, applied at their respective MIC values.
(§6) Bacterial growth kinetics of S. aureus grown in DMEM and P. aeruginosa grown in M9 minimal media+1% glucose were determined. The amount of biofilm remaining was determined using the CV staining method as described above.

[4] = tested on: P. aeruginosa (NCTC12903) biofilm; assay: Crystal violet biofilm clearance assay; format: cell-based, Pseudomonas aeruginosa; conditions: for amount of biofilm present after treatment (CV stain, OD 600 nm): FIG. 2, 0.000625% PHMB, 10% TPGS, 10% EM, 6.25% EtOH, dosed at different days, 24 hours, vs untreated control; for percentage biofilm remaining / amount of biofilm remaining: FIG. 3, 0.1% PHMB, 10% TPGS or both; for percentage biofilm remaining: treated at day 0; for amount of biofilm remaining: treatment at day 1, 2 or 3
Method: as §1, §3, §4, §5, §6

Fibroblasts [5] = assay: Toxicity of retinol to fibroblasts; format: cell-based
Fibroblasts [6] = assay: SRS-SHG microscopy of fibroblasts exposed to retinol; format: cell-based; conditions: 0.31 μg/mL or 0.25 μg/mL; days 1, 3 and 7
Method: Fibroblasts were exposed to compositions containing 0.31 μg/mL or 0.25 μg/mL, and a control sample with no retinol, over a period of 7 days. SRS-SHG microscopy was used to determine absorption of the retinol by the fibroblasts at days 1, 3 and 7 after exposure.

[7] = Ex-vivo skin penetration, Franz diffusion cells, SRS imaging; format: in vitro ADME, pig
Method: Skin penetration studies were performed on dermatomed porcine skin, dosed using vertical Franz diffusion cells.
A scalpel was used to cut each Franz cell disc into a smaller portion for sectioning, and was sanitised with ethanol between samples. A fresh cryostat blade was used for each sample. The cryostat temperature was set to −33° C., and samples equilibrated in the cryostat for approximately 45 minutes prior to sectioning.
After 24 hours, the skin surface was cleaned and cross-sections 30 μm thick were prepared using cryosectioning and mounted onto glass coverslips. SRS (stimulated raman spectroscopy) imaging was used to observe the penetration of the composition through the skin.
SRS imaging used a Leica SP8 microscope with SRS and CARS. A PicoEmerald-S laser system output two pulsed 2 ps laser beams (a 1031 nm Stokes beam spatially and temporally overlapped with a tuneable pump beam). The Stokes beam was modulated at 20 MHz and stimulated Raman loss signals were detected in transmission using a lock-in amplifier (UHFLI, Zurich instruments). CARS and SHG/fluorescence signals were epi-detected in separate PMT channels. A water immersion×25 magnification lens (0.95 NA, Leica) was used. A short working distance air condenser (0.9 NA, Leica) was used. Laser power was 30%, which corresponded to approximately 10 mW for the pump beam and 30 mW for the Stokes beam at the sample. […]

[8] = tested on: P. aeruginosa (NCTC12903); assay: CFU count after treatment of biofilm; format: cell-based, Pseudomonas aeruginosa; conditions: FIG. 3; 10% TPGS or 0.1% PHMB with 10% TPGS; treated on any day
Method: (§7) The amount of biofilm remaining was determined using the CV staining method as described above. CFU count was determined by the following method: The inoculated liquid culture (grown dynamically overnight at 37° C. in liquid growth media) was spun down in a centrifuged (at max (13.3) speed for 5 minutes) (reference). The supernatant was removed and resuspend in PBS (1:100 dilution). Into each well, 20 μL of inoculated culture LB broth was added to 180 μL LB broth. […] For the untreated wells, 1 μL of PBS was added. The 96-well plate was placed in a TECAN measuring at OD600 over 24 hours at 15-minute intervals. Resulting growth kinetic experiments were conducted using mid-logarithmically growing cultures. […] Following this, the wells were homogenised, and 20 μL samples were plate spotted onto nutrient agar (NA). These plates were incubated for 18 hours at 37° C. before colonies were counted.

S. aureus (NCTC12493) = assay: CFU count after treatment of biofilm; format: cell-based, Staphylococcus aureus; conditions: FIG. 3; 10% TPGS or 0.1% PHMB with 10% TPGS; treated on any day
Method: as §7

[9] = concentration before inoculation, 18 hours at 37° C., vehicle ethanol or water
[10] = concentration before inoculation, 18 hours at 37° C., vehicle ethanol, water or none
[11] = vehicle TPGS (curcumin solubilised in TPGS)

Row | Compound | MIC [1, 9] [mg/mL] | MIC, S. aureus [1, 10] | MIC [2, 9] [mg/mL] | MIC, P. aeruginosa [2, 10] | amount of biofilm present after treatment (CV stain, OD 600 nm) [3] | amount of biofilm present after treatment (CV stain, OD 600 nm) [4] | percentage biofilm remaining [3] | amount of biofilm remaining [3] | concentration inhibiting S. aureus growth (MIC) [1] [% v/v] | concentration inhibiting P. aeruginosa growth (MIC) [2] [% v/v] | percentage biofilm remaining [4] | amount of biofilm remaining [4] | also measured
1 | COc1cc(/C=C/C(=O)CC(=O)/C=C/c2ccc(O)c(OC)c2)ccc1O [Curcumin] | 2 (≈ 5.43 mM) | 0.2 w/v % | 2 (≈ 5.43 mM) | 0.2 w/v % |  |  |  |  |  |  |  |  | MIC, S. aureus [1, 11]: 0.0125 w/v %; MIC, P. aeruginosa [2, 11]: 0.1 w/v %
2 | CCO [Ethanol] |  | 6.25 w/v % |  | 6.25 w/v % | at TO there was an increase in biofilm | little to no effect |  |  |  |  |  |  | 
3 | CC1=C(/C=C/C(C)=C/C=C/C(C)=C/CO)C(C)(C)CCC1 [Retinol] | 50 (≈ 175 mM) | 5 w/v % | 50 (≈ 175 mM) | 5 w/v % |  |  |  |  |  |  |  |  | concentration not toxic to fibroblasts (Fibroblasts [5]): ≤ 6000 ng/mL; response of fibroblasts (SHG signals outside of nuclei) (Fibroblasts [6]): concentration and time dependent response; depth through the skin down to which retinol was observed ([7]; composition comprising retinol and TPGS applied to pig skin for 24 hours): 60 μm; penetration of the retinol into the skin ([7]; similar experiment, composition including PHMB (1 wt %)): did not show penetration
4 | Polysorbate 40 |  | >25% w/v % |  | >25% w/v % |  |  |  |  |  |  |  |  | 
5 | polyhexamethylene biguanide [PHMB] |  | 0.000625 w/v % |  | 0.005 w/v % | good biofilm clearance | an increase in biofilm when dosed on T1 | fully reducing the biofilm remaining | effective | 0.000625 | 0.005 | fully reducing the biofilm remaining | effective | 
6 | tocopheryl polyethylene glycol succinate [TPGS] |  | 20 w/v % |  | 20 w/v % | a reduction in the amount of biofilm present | the most effective compound | fully reducing the biofilm remaining | effective | 10 | 20 | fully reducing the biofilm remaining | effective | MIC, S. aureus [1, 9]: (200) mg/mL; MIC, P. aeruginosa [2, 9]: (200) mg/mL; CFU count [8]: remained substantially constant; CFU count (S. aureus (NCTC12493)): remained substantially constant
